Measurements as given in patent US20240398823A1, “DUAL INHIBITOR OF HISTONE DEACETYLASE 6 AND HEAT SHOCK PROTEIN 90” (TAIPEI MEDICAL UNIVERSITY, priority 2021, published 2024).

How the values were obtained:
HCT116 = experiment: MTT assay, survival of human colorectal cancer cells HCT116; format: cell-based; details: HCT-116, 48 h, mean ± SD, read-out: Human cell lines HCT116 IC50(μM ± SD)
Description: (§1) The effects on cell viability of the HSP90/HDAC6 dual inhibitors as described in Synthesis Examples (such as Compounds 63, 64, and 66 to 76) were evaluated. Cells were seeded in 96-well plates (5000 cells/well). The next day, the serially diluted drugs were added into the wells and incubated at 37° C. for 48 h. Cell viability was measured by the MTT assay and is expressed as percentages of surviving drug-treated cells relative to untreated control cells. The IC50 was calculated by non-linear regression analysis.
The inhibitory effect of the HSP90/HDAC6 dual inhibitors as described in Synthesis Examples on the survival rate of human colorectal cancer cells HCT116 is evaluated using MTT assay.

HSP90α = target: T1, HSP90α (Homo sapiens, UniProt P07900); experiment: HSP90 inhibition assay, FITC-geldanamycin competition fluorescence polarization, HSP90α; format: binding; details: FITC-GM competition
T1 construct: Reaction Biology Corporation (ran the assay as a service)

HSP90β = target: T2, HSP90β (Homo sapiens, UniProt P08238); experiment: HSP90 inhibition assay, FITC-geldanamycin competition fluorescence polarization, HSP90β; format: binding; details: FITC-GM competition
T2 construct: Reaction Biology Corporation (ran the assay as a service)

[1] = system: human colon normal epithelial cells (CCD841CON); experiment: MTT cytotoxicity to normal cells, CCD841CON; format: cell-based; details: CCD-841CoN, 48 hours, read-out: IC50, proliferation of CCD841CON
Description: FIGS. 3A and 3B show the effects of Compound 75 on cytotoxicity to normal cell lines. Cells were treated with DMSO or different concentrations of Compound 75 for 48 hours and cell viability was assessed by MTT assay. […] Data are expressed as mean t S.D. N values greater than 3. * P<0.05; ** P<0.01; *** P<0.001, compared with the control group.
as §1
The cytotoxicity to normal cells of Compound 75 was evaluated.

[2] = system: PD-L1 expression in HCT116, LS174T, Mia paca-2, BXPC3, A549 and CT26 cells; experiment: IFN-γ-induced cell membrane PD-L1 in different cancer cell lines by flow cytometry; format: cell-based, human; mouse; details: Mia paca-2, BXPC3, A549, CT26, co-treated 48 hours
Description: The cells were tested in 6-well plates with 32×10^4 cells/well and co-treated with Compound 75 for 48 hours and analyzed by flow cytometry. Bar, SD. […] The effects of the HSP90/HDAC6 dual inhibitors as described in Synthesis Examples (such as Compounds 63, 64, and 66 to 76) on PD-L1 expression were evaluated. Cells were seeded in 6-well plates (3.2×10^5 cells/well) and treated on the next day with […] and compounds or DMSO (vehicle) at indicated concentrations for 48 h. The treated cells were suspended (3×10^5 cells/tube) and stained with PD-L1 antibody (Invitrogen, Waltham, USA) and FITC-conjugated secondary antibodies on ice for 1 h. The fluorescence signal of the cells was analyzed by FASCalibur flow cytometer and CellQuest software (BD Biosciences, San Jose, CA, USA). Using flow cytometry, whether Compound 75 could downregulate […]-induced PD-L1 performance in different cancer cell lines was evaluated, namely human colorectal cancer cell lines (HCT116 and LS174T), human pancreatic cancer cell lines (Mia paca-2 and BXPC3), human lung cancer cell line (A549) and mouse colorectal cancer cell line (CT26).

[3] = system: PD-L1 and IDO expression in HCT116 and CT26 cell lines; experiment: Western blot of IFN-γ-induced PD-L1 and IDO, STAT1 pathway, in HCT116 and CT26; format: cell-based, human; mouse; details: HCT116 and CT26, 48 hours, via p-STAT1 and STAT1
Description: The cells were tested in 6-well plates with 32×10^4 cells/well and co-treated with Compound 75 for 48 hours and analyzed by flow cytometry. Bar, SD.
The effects of the HSP90/HDAC6 dual inhibitors as described in Synthesis Examples (such as Compounds 63, 64, and 66 to 76) on several factors were evaluated. Cells were lysed in RIPA buffer (Thermo Fisher Scientific, Wal-tham, MA, USA) and protease inhibitor (Roche, Basel, CH). Sample were further separated in 8% or 15% SDS-PAGE and transferred to nitrocellulose membrane and blocked with 5% skim milk (w/v in PBS). Nitrocellulose membranes were then incubated with primary antibodies against the following antigens: HSP90, Src, AKT, Rb, phosphorylated Rb (p-Rb), FAK, HSP70, α-tubulin acetylation, acetyl histone H3, phosphorylated STAT1 (p-STAT1), STAT1 (Cell signaling, Danvers, MA, USA), α-tubulin, Histone H3 (Genetex, Irvine, USA), IDO (Santa Cruz Biotechnology Dallas, TX, USA) and PD-L1 (Novus, Littleton, CO, USA) at 4° C. for overnight. The target proteins were visualized by using HRP-conjugated secondary antibodies (Jackson ImmunoResearch Laboratories, West Grove, PA, USA) and enhanced chemiluminescence kit (Thermo Fisher Scientific, Waltham, MA, U.S.A.).
Using western blot, whether Compound 75 reduced […]-induced PD-L1 and IDO performance by inhibiting STAT1 pathway was evaluated.

[4] = system: T cells in blood (CD8+, CD4+, Treg); experiment: Peripheral blood immune cells by flow cytometry in CT26 tumor mice; format: in vivo, mouse; details: day 25, flow cytometry, 10, 25, 50 mg/kg
Description: FIGS. 10A to 10C show immune cell regulation of peripheral blood by Compound 75. BALB/c mice with CT26 tumors were treated with 10, 25 and 50 mg/kg of Compound 75 every two days, and blood was collected from the heart and analyzed by flow cytometry on day 25 for cytotoxicity T cells (CD3+CD8+) (as shown in FIG. 10A), helper T cells (CD3^+CD4^+) (as shown in FIG. 10B) and regulatory T cells (CD3^+CD4^+FOXP3^+) (as shown in FIG. 10C). Data are expressed as mean±S.D. N values greater than 3. * P<0.05; ** P<0.01; *** P<0.001, compared with the control group.
The reasons for the decrease of Treg in blood were further investigated.

[5] = system: colorectal cancer tumors (CT26); experiment: CT26 tumor model, Compound 75 and Anti-PD1 alone and combined; format: in vivo
[6] = system: central memory T cells (TCM) in the spleen; experiment: Central memory T cells in spleen by flow cytometry; format: in vivo, mouse
Description: Stage 1: CT26 was injected subcutaneously into the left dorsum of immunocompetent mice (BALB/c), and Compound 75 treatment was started after 3 days, administered intravenously at a dose of 50 mg/kg every two days (7 doses in total). After tumor removal, tumor cells were isolated for in vitro culture (untreated tumor control-tumor; Compound 75-treated tumor: Compound 75-tumor). Stage 2: On day 17, the isolated tumor cells were injected subcutaneously into the right side of the mouse back and the mice were sacrificed on day 37 (as shown in FIG. 14A). […] Data are mean t S.E.M. N values greater than 4.

[7] = Anti-PD1 combination study, Compound 75 50 mg/kg/2 days

T2 sequence (P08238 whole entry): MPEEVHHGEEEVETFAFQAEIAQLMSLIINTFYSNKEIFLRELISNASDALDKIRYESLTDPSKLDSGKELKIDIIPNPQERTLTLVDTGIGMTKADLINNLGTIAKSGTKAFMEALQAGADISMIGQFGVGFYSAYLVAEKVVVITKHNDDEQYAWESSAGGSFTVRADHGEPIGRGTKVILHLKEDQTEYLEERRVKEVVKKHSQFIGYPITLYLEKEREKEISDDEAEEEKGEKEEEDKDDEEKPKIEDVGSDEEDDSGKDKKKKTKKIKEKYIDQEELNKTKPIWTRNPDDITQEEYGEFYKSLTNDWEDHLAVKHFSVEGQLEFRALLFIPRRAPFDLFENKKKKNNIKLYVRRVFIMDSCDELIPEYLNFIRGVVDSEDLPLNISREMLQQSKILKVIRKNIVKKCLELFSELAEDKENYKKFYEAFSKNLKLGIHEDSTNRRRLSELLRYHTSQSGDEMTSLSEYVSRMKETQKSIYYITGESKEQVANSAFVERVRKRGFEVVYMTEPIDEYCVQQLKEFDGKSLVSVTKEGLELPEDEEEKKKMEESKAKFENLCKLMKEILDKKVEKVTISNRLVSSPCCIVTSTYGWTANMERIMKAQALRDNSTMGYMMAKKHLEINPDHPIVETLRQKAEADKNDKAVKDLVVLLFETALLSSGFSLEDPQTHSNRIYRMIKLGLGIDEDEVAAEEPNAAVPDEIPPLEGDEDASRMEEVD

Q: How did the IC50 (HCT116) turn out when COc1ccc(N(Cc2ccc(C(=O)NO)cc2)C(=O)c2cc(C(C)C)c(O)cc2O)cc1 [Compound 75, 2,4-Dihydroxy-N-(4-hydroxycarbamoyl-benzyl)-5-isopropyl-N-(4-methoxy-phenyl)-benzamide] was run?
A: The IC50 was 0.27 ± 0.01 µM.

Q: What about the IC50 (HSP90α) of the same compound?
A: The IC50 was 52 nM.

Q: And the IC50 (HSP90β)?
A: The IC50 was 66.9 nM.

Q: And the IC50 [1]?
A: Its IC50 is over 20000 nM.

Q: What about the “IFN-γ-induced cell membrane protein PD-L1 expression” value [2] of the same compound?
A: Its value is “inhibits all IFN-7-induced cell membrane protein PD-L1 expression”.

Q: And the “IFN-γ-induced PD-L1 and IDO expression” value [3]?
A: The value was “downregulated PD-L1 and IDO expression”.

Q: And the “immunosuppressive Treg cell level in blood” value [4]?
A: Its value is “could be reduced in a concentration dependent manner”.

Q: What about the “percentage of CD4+ helper T cells in blood” value [4] of the same compound?
A: The value was “did not affect”.

Q: And the “percentage of CD8+ cytotoxicity T cells in blood” value [4]?
A: The value was “did not affect”.

Q: And the body weight [5, 7]?
A: The body weight was “no significant change in body weight”.

Q: And the toxicity to mice [5, 7]?
A: The toxicity to mice was “not significantly toxic”.

Q: What about the “treatment effect on CT26 tumor, agent alone” value ([5]; Compound 75 50 mg/kg/2 days or Anti-PD1 200 μg alone) of the same compound?
A: The value was “limited”.

Q: And the “tumor growth, combined treatment with Anti-PD1” value ([5]; Compound 75 50 mg/kg/2 days plus Anti-PD1 200 μg)?
A: The value was “significantly inhibited tumor growth”.

Q: What about the “percentage of central memory T cells” value [6] of the same compound?
A: The value was “significantly increased”.
